The results in this text go back to publication PMC7440923, “Measuring protein stability in the GroEL chaperonin cage reveals massive destabilization” (eLife, 2020).

For series [1], the target named is T1, DHFRMp fused to eGFP (chimera), free in bulk solution (Moritella profunda, UniProt Q70YQ6).
T1 construct: gene dyrA; N-terminal His7-eGFP (A206K)-linker with TEV site-DHFRMp at the C-terminus; fusion uncut; E. coli BL21; not encapsulated
Put plainly: differential scanning fluorimetry, SYPRO Orange. It counts as binding. Particulars: 500 µM ligand, 5 µM chimera, working buffer pH 8.0; transition of the DHFRMp part. In general terms: DSF heats the sample and reads unfolding from a dye or from intrinsic fluorescence.

Series [2] deals with T2, GroEL (Escherichia coli, UniProt P0A6F5 1-548).
T2 construct: GroEL chaperonin of the Escherichia coli GroE system; used as 'GroEL oligomer'; Expression and purification of GroEL are not described; also called GroEL oligomer
Put plainly: SEC; freshly assembled football complexes: acid-denatured eGFP added to GroEL and GroES oligomers in folding buffer, assembly started with Na2SO4, NaF, BeSO4 and ATP; gel-filtration in working buffer (20 mM Hepes pH 8.0, 100 mM KCl, 50 mM MgCl2, 50 mM Na2SO4, 10 mM NaF, 1 mM BeSO4, 1 mM DTT); A280 and A485, fractions by SDS-PAGE. Particulars: both partners purified. For orientation: SEC sorts molecules by how far they enter the pores of the column.

Substrate in series [3]: Nc1nc2c(c(=O)[nH]1)N=C(CNc1ccc(C(=O)N[C@@H](CCC(=O)O)C(=O)O)cc1)CN2
Put plainly: purified protein. The class given is biochemical, Moritella profunda. Particulars: 350 µM NADPH, 23 °C, working buffer (20 mM Hepes pH 8.0, 100 mM KCl, 50 mM MgCl2, 50 mM Na2SO4, 10 mM NaF, 1 mM BeSO4, 1 mM DTT), free chimera in bulk solution.

T2 sequence (P0A6F5 whole entry): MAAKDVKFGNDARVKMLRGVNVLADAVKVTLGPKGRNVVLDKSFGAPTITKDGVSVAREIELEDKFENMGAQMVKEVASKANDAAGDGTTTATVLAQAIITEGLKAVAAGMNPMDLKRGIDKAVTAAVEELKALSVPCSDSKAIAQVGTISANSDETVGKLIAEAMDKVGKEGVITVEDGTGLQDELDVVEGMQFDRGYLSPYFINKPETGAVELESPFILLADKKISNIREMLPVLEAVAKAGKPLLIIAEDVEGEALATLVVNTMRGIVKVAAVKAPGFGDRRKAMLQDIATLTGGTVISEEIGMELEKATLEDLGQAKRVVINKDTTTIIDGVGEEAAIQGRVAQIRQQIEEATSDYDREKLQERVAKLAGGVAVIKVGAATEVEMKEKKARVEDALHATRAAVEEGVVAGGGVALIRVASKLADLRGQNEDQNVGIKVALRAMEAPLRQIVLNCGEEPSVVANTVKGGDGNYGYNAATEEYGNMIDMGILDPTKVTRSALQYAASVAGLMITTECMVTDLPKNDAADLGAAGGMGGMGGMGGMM

On to `Nc1nc2c(c(=O)[nH]1)N=C(CNc1ccc(C(=O)N[C@@H](CCC(=O)O)C(=O)O)cc1)CN2` [dihydrofolate], for which the “increase in melting temperature (dTm)” value in series [1] is ~ 31 °C.
Same read-out and setting: in the case of `NC(=O)C1=CN([C@@H]2O[C@H](COP(=O)(O)OP(=O)(O)OC[C@H]3O[C@@H](n4cnc5c(N)ncnc54)[C@H](OP(=O)(O)O)[C@@H]3O)[C@@H](O)[C@H]2O)C=CC1` [NADPH] it was ~ 8 °C.

B1: GroES (natural protein, Escherichia coli, UniProt P0A6F9 1-97, looked up)
chain: MNIRPLHDRVIVKRKEVETKSAGGIVLTGSAAAKSTRGEVLAVGNGRILENGEVKPLDVKVGDIVIFNDGYGVKSEKIDNEEVLIMSESDILAIVEA
notes: GroES, co-factor of GroEL in the Escherichia coli GroE system; used as 'GroES oligomer'; Expression and purification of GroES are not described; also called GroES oligomer
With B1, the binding result in series [2] is given as “binds”.

B2: DHFRMp fused to eGFP (chimera), free in bulk solution (Moritella profunda) (protein)
chain: MIVSMIAALANNRVIGLDNKMPWHLPAELQLFKRATLGKPIVMGRNTFESIGRPLPGRLNIVLSRQTDYQPEGVTVVATLEDAVVAAGDVEELMIIGGATIYNQCLAAADRLYLTHIELTTEGDTWFPDYEQYNWQEIEHESYAADDKNPHNYRFSLLERVK
notes: N-terminal His7-eGFP (A206K)-linker with TEV site-DHFRMp at the C-terminus; fusion uncut; E. coli BL21; not encapsulated
As to B2, in series [3], the Km is given as 33 (±2) µM.
